Data: patent US6479435B1, “Diaryl ethers and processes for their preparation and herbicidal and desiccant compositions containing them” (ISK Americas Incorporated, priority 1997, dated 2002)

Key:
Assay type in all cases: in vivo
[1] = tested on: velvetleaf (Abutilon theophrasti, ABUTH); experiment: Post-emerge greenhouse herbicide test, phytotoxicity rating; conditions: 14 days after application, scale 0-100
In short: (§1)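 Scores use a 0 (no damage) to 100 (complete kill) scale, taken 14 days after a foliar spray. Acetone solutions with 0.25% v/v non-ionic surfactant were applied by track sprayer at 187 l/ha and 63-1000 g ai/ha to bottom-watered 2-3 leaf plants.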

[2] = tested on: sicklepod (Cassia obtusifolia, CASOB); experiment: as above; conditions: 14 days after application, scale 0-100
In short: as §1

[3] = tested on: barnyardgrass (Echinochloa crusgalli, ECHCG); experiment: as above; conditions: 14 days after application, scale 0-100
In short: as §1

[4] = tested on: large crabgrass (Digitaria sanguinalis, DIGSA); experiment: as above; conditions: 14 days after application, scale 0-100
In short: as §1

[5] = tested on: green foxtail (Setaria viridis, SETVI); experiment: as above; conditions: 14 days after application, scale 0-100
In short: as §1

[6] = tested on: redroot pigweed (Amaranthus retroflexus, AMARE); experiment: as above; conditions: 14 days after application, scale 0-100
In short: as §1

[7] = tested on: ivyleaf morningglory (Ipomoea hederacea, IPOHE); experiment: as above; conditions: 14 days after application, scale 0-100
In short: as §1

[8] = tested on: Johnsongrass (Sorghum halepense, SORHA); experiment: as above; conditions: 14 days after application, scale 0-100
In short: as §1

[9] = tested on: lambsquarters (Chenopodium album, CHEAL); experiment: as above; conditions: 14 days after application, scale 0-100
In short: as §1

[10] = tested on: velvetleaf (Abutilon theophrasti, ABUTH); experiment: Pre-emerge greenhouse herbicide test, phytotoxicity rating; conditions: 14 days after application, rating scale 0-100
In short: (§2)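 Visual 0–100 injury rating (100 = all plants dead) taken 14 days after treatment. Rates of 125–1000 g ai/ha in acetone, 187 l/ha, were sprayed onto soil one day post-sowing; pots were surface-watered to incorporate, then bottom-watered.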

[11] = tested on: sicklepod (Cassia obtusifolia, CASOB); experiment: as above; conditions: 14 days after application, rating scale 0-100
In short: as §2

[12] = tested on: common ragweed (Ambrosia artemisiifolia L., AMBEL); experiment: as above; conditions: 14 days after application, rating scale 0-100
In short: as §2

[13] = tested on: barnyardgrass (Echinochloa crusgalli, ECHCG); experiment: as above; conditions: 14 days after application, rating scale 0-100
In short: as §2

[14] = tested on: large crabgrass (Digitaria sanguinalis, DIGSA); experiment: as above; conditions: 14 days after application, rating scale 0-100
In short: as §2

[15] = tested on: green foxtail (Setaria viridis, SETVI); experiment: as above; conditions: 14 days after application, rating scale 0-100
In short: as §2

[16] = tested on: redroot pigweed (Amaranthus retroflexus, AMARE); experiment: as above; conditions: 14 days after application, rating scale 0-100
In short: as §2

[17] = tested on: ivyleaf morningglory (Ipomoea hederacea, IPOHE); experiment: as above; conditions: 14 days after application, rating scale 0-100
In short: as §2

[18] = tested on: Johnsongrass (Sorghum halepense, SORHA); experiment: as above; conditions: 14 days after application, rating scale 0-100
In short: as §2

[19] = tested on: lambsquarters (Chenopodium album, CHEAL); experiment: as above; conditions: 14 days after application, rating scale 0-100
In short: as §2

[20] = tested on: field corn (Zea mays L., var. Dekalb 535, CORN); experiment: Pre-emerge greenhouse test, crop damage rating; conditions: 14 days after application, rating scale 0-100
In short: as §2

[21] = tested on: upland rice (Oryza sp., var.Tebonnet, RICE); experiment: Pre-emerge greenhouse test, crop damage rating; conditions: 14 days after application, rating scale 0-100
In short: as §2

[22] = tested on: soybean (Glycine max L., var. Pella 86, SOY); experiment: Post-emerge greenhouse test, crop damage rating; parameters: key to crop damage rating SOY: 0-100 scale: 0 = no damage, 100 = complete death of all plants; conditions: 14 days after application, scale 0-100
In short: as §1

[23] = tested on: soybean (Glycine max L., var. Pella 86, SOY); experiment: Pre-emerge greenhouse test, crop damage rating; parameters: key to SOY crop damage rating: 0 = no damage, 100 = complete death of all plants; conditions: 14 days after application, rating scale 0-100
In short: as §2

[24] = tested on: field corn (Zea mays L., var. Dekalb 535, CORN); experiment: Post-emerge greenhouse test, crop damage rating; conditions: 14 days after application, scale 0-100
In short: as §1

[25] = tested on: upland rice (Oryza sp., var.Tebonnet, RICE); experiment: Post-emerge greenhouse test, crop damage rating; conditions: 14 days after application, scale 0-100
In short: as §1

[26] = tested on: common ragweed (Ambrosia artemisiifolia L., AMBEL); experiment: Post-emerge greenhouse herbicide test, phytotoxicity rating; conditions: 14 days after application, scale 0-100
In short: as §1

N#Cc1ccc(Oc2cc(-n3c(=O)n4n(c3=S)CCCC4)c(F)cc2Cl)nc1 [Compound 8-22]
phytotoxicity rating ABUTH ([1]; rate 63 g ai/ha): 100
phytotoxicity rating ABUTH ([1]; rate 500 g ai/ha): 100
phytotoxicity rating CASOB ([2]; rate 63 g ai/ha): 50
phytotoxicity rating CASOB ([2]; rate 500 g ai/ha): 80
phytotoxicity rating ECHCG ([3]; rate 63 g ai/ha): 10
phytotoxicity rating ECHCG ([3]; rate 500 g ai/ha): 30
phytotoxicity rating DIGSA ([4]; rate 63 g ai/ha): 0
phytotoxicity rating DIGSA ([4]; rate 500 g ai/ha): 30
phytotoxicity rating SETVI ([5]; rate 63 g ai/ha): 20
phytotoxicity rating SETVI ([5]; rate 500 g ai/ha): 75
phytotoxicity rating AMARE ([6]; rate 63 g ai/ha): 95
phytotoxicity rating AMARE ([6]; rate 500 g ai/ha): 100
phytotoxicity rating IPOHE ([7]; rate 63 g ai/ha): 80
phytotoxicity rating IPOHE ([7]; rate 500 g ai/ha): 100
phytotoxicity rating SORHA ([8]; rate 63 g ai/ha): 0
phytotoxicity rating SORHA ([8]; rate 500 g ai/ha): 30
phytotoxicity rating CHEAL ([9]; rate 63 g ai/ha): 100
phytotoxicity rating CHEAL ([9]; rate 500 g ai/ha): 100
ABUTH phytotoxicity rating ([10]; Rate 125 g al/ha): 100
ABUTH phytotoxicity rating ([10]; Rate 500 g al/ha): 100
CASOB phytotoxicity rating ([11]; Rate 125 g al/ha): 20
CASOB phytotoxicity rating ([11]; Rate 500 g al/ha): 90
AMBEL phytotoxicity rating ([12]; Rate 125 g al/ha): 100
AMBEL phytotoxicity rating ([12]; Rate 500 g al/ha): 100
ECHCG phytotoxicity rating ([13]; Rate 125 g al/ha): 0
ECHCG phytotoxicity rating ([13]; Rate 500 g al/ha): 30
DIGSA phytotoxicity rating ([14]; Rate 125 g al/ha): 20
DIGSA phytotoxicity rating ([14]; Rate 500 g al/ha): 90
SETVI phytotoxicity rating ([15]; Rate 125 g al/ha): 40
SETVI phytotoxicity rating ([15]; Rate 500 g al/ha): 100
AMARE phytotoxicity rating ([16]; Rate 125 g al/ha): 100
AMARE phytotoxicity rating ([16]; Rate 500 g al/ha): 100
IPOHE phytotoxicity rating ([17]; Rate 125 g al/ha): 40
IPOHE phytotoxicity rating ([17]; Rate 500 g al/ha): 10
SORHA phytotoxicity rating ([18]; Rate 125 g al/ha): 0
SORHA phytotoxicity rating ([18]; Rate 500 g al/ha): 20
CHEAL phytotoxicity rating ([19]; Rate 125 g al/ha): 100
CHEAL phytotoxicity rating ([19]; Rate 500 g al/ha): 100
CORN crop damage rating ([20]; Rate 125 g al/ha): 0
CORN crop damage rating ([20]; Rate 500 g al/ha): 60
RICE crop damage rating ([21]; Rate 125 g al/ha): 0
RICE crop damage rating ([21]; Rate 500 g al/ha): 40
crop damage rating SOY ([22]; rate 63 g ai/ha): 65
crop damage rating SOY ([22]; rate 500 g ai/ha): 95
SOY crop damage rating ([23]; Rate 125 g al/ha): 50
SOY crop damage rating ([23]; Rate 500 g al/ha): 70
crop damage rating CORN ([24]; rate 63 g ai/ha): 53
crop damage rating CORN ([24]; rate 500 g ai/ha): 15
crop damage rating RICE ([25]; rate 63 g ai/ha): 5
crop damage rating RICE ([25]; rate 500 g ai/ha): 10
phytotoxicity rating AMBEL ([26]; rate 63 g ai/ha): 80
phytotoxicity rating AMBEL ([26]; rate 500 g ai/ha): 100
